{
  "source": "patent US11607404B2",
  "about": "“Combinations of RAD51 and PARP inhibitors” (Cyteir Therapeutics, Inc., priority 2019, dated 2023)",
  "key": {"[1]": {"tested_on": "ARPE19/HPV16 (HPV Immortalized RPE)", "experiment": "Cell line screen (potency assay)", "type": "cell-based", "details": "ARPE-19, AICDA expression Negative", "method": "The first step was to set up a cell killing assay in the Daudi cell line (AID positive). A 96 well u-bottom plate was prepared by writing the experiment number, plate number, date and initials in the top right corner of the plate lid. With a sterile 300 ml reservoir, and 25 ml serological pipette, evaporation buffer media was pipetted into reservoir in 25 ml increments. Using the liquid handler, 150 ul of evaporation buffer media was pipetted from reservoir into rows A and H, and Columns 1 and 12 of the 96 well u-bottom plate. Cell cultures were counted to obtain the density of cells per ml, and the culture viability. The cell density information was used to obtain 1,000,000 cells from culture using a 5 mL serological pipette into an epi tube. The cell density information from the culture was used to calculate the number of cells and volume of media needed for the assay to seed 1250 cells in 130 ul of media per available culture well in the 96 well u-bottom plate. Rows B through F were used for cells (50 wells in total), with row G left for an empty media control. The calculation was overestimated by 10 mL to account for the dead volume in the 300 ml reservoir. Once the media volume was calculated, the appropriate volume of media was pipetted in 25 mL increments into the 250 mL bottle using a 25 mL serological pipette. The 250 ml bottle was capped tightly, and placed into a 37° C. water bath for 2 minutes. While the culture media was warming, 10 mL of fresh media was pipetted from the 500 mL culture media bottle into a sterile 25 mL reservoir. Using the Eppendorf multichannel pipette, 130 ul of media was piptted from the 25 mL reservoir into row G of the 96 well u-bottom plate. Once the 250 mL bottle of media was warmed, the volume of culture needed was pipetted into the bottle, and mixed gently with a 25 mL serological pipette as to not create bubbles, and then the contents of the bottle were pipetted into a new 300 mL reservoir. Using the liquid handler, 130 ul of culture was pipetted from the 300 mL reservoir into rows B through F of the 96 well u-bottom plate. Once the culture was added, the plate was placed into a 37° C. incubator until the compound master plate was prepared for use.\nTwo 96 well u-bottom plates were prepared by writing the master plate name in the upper right corner of the plate lid. Labeling one DMSO master and the other Media Master. The compounds of interest were obtained from the laboratory freezer, and placed into a 25 well storage box with a lid, and set the box aside. The compounds were vortexed after thawing but before use. Using an automatic multichannel pipette, 20 ul of 100% DMSO was pipetted into wells B3-B11 through G3-G11 of the DMSO master plate. For each compound on the master plate, 50 ul of the compound were pipetted in the appropriate well of row 2 (reference plate map to determine appropriate well). A serial dilution was prepared beginning by aspirating 20 ul from row 2 and mixing with row 3, repeating until row 11 was reached. Using the liquid handler, 194 ul of Daudi media was dispensed into wells B2-B11 through G2-G11 of the Media master plate. Using the liquid handler, 6 ul from the DMSO master plate was aspirated and dispensed into the media master plate, mixing 100 ul twice.\nCompounds from master plate were then added to the culture plate. The culture plates were removed from the incubator, and set inside the biosafety cabinet. Using a liquid handler, 20 ul from wells B2 to B11 through G2 to G11 of master plate were aspirated, and dispensed into wells B2 to B11 through G2 to G11 of culture plate. This set was continued with each culture plate. Once the culture plates acquired their 20 ul of compound dilutions, they were placed back into the incubator, until their reads on Day 7 of experiment. Cell death was measured on Day 7 of the experiment using Cell-Titer Glo and a Promega Plate reader. […]"}, "[2]": {"tested_on": "HBCx1 model", "experiment": "Tumor growth inhibition, subcutaneous engrafted tumor model", "type": "in vivo, mice", "details": "HRD Positive, RAD51 High, BRCA WT, PALB2 WT, 67A 80 mg/kg QD, olaparib 100 mg/kg QD, combo both", "method": "(§1) Immunodeficient mice were subcutaneously engrafted in the rear flank with the tumor cells. The tumors were allowed to grow to a size of about 100 to about 200 mm^3 prior to being randomized and grouped into treatment arms. For models […] through […] the four treatment arms were vehicle, Compound 67A at 80 mg/kg QD, olaparib at 100 mg/kg QD, and Compound 67A+Olaparib at 80 mg/kg QD and 100 mg/kg QD, respectively. For models J000101173 through TM00091 the treatment arms were vehicle, Compound 67A at 40 mg/kg QD, olaparib at 50 mg/kg QD, and Compound 67A+Olaparib at 40 mg/kg QD and 50 mg/kg QD, respectively. The tumors were measured either once weekly or twice weekly.\n(§2) Percent Tumor Growth Inhibition (% TGI) was calculated by taking the mean volume of each of the treatment arms, and comparing the treatment arms to the vehicle arms using the following equation"}, "[3]": {"tested_on": "HBCx16 model", "experiment": "Tumor growth inhibition, subcutaneous engrafted tumor model", "type": "in vivo, mice", "details": "HRD Positive, RAD51 High, BRCA1 Meth, PALB2 WT, 67A 80 mg/kg QD, olaparib 100 mg/kg QD, combo both", "method": "as §1, §2"}, "[4]": {"tested_on": "HBCx27 model", "experiment": "Tumor growth inhibition, subcutaneous engrafted tumor model", "type": "in vivo, mice", "details": "HRD Negative, RAD51 High, BRCA WT, PALB2 WT, 67A 80 mg/kg QD, olaparib 100 mg/kg QD, combo both", "method": "as §1, §2"}, "[5]": {"tested_on": "J000100675 model", "experiment": "Tumor growth inhibition, subcutaneous engrafted tumor model", "type": "in vivo, mice", "details": "HRD Negative, RAD51 Low, BRCA WT, PALB2 WT, 67A 40 mg/kg QD, olaparib 50 mg/kg QD, combo both", "method": "as §1, §2"}, "[6]": {"tested_on": "TM000113 model", "experiment": "Tumor growth inhibition, subcutaneous engrafted tumor model", "type": "in vivo, mice", "details": "HRD Negative, RAD51 Low, BRCA WT, PALB2 WT, 67A 40 mg/kg QD, olaparib 50 mg/kg QD, combo both", "method": "as §1, §2"}, "[7]": {"tested_on": "TM00090 model", "experiment": "Tumor growth inhibition, subcutaneous engrafted tumor model", "type": "in vivo, mice", "details": "HRD Positive, RAD51 Low, BRCA1 Meth, BRCA2 Mut, PALB2 WT, 67A 40 mg/kg QD, olaparib 50 mg/kg QD, combo both", "method": "as §1, §2"}, "[8]": {"tested_on": "TM01079 model", "experiment": "Tumor growth inhibition, subcutaneous engrafted tumor model", "type": "in vivo, mice", "details": "HRD Positive, RAD51 Low, BRCA1 Meth, PALB2 WT, 67A 40 mg/kg QD, olaparib 50 mg/kg QD, combo both", "method": "as §1, §2"}},
  "data": [
    {"smiles": "CC(C)OC(=O)Nc1ccc(-c2cnc([C@H]3CC[C@H](NC(=O)OC(C)C)CC3)s2)c(S(=O)(=O)NC(C)(C)C)c1", "note": "[Compound 67A, trans-isopropylN-[3-(tert-butylsulfamoyl)-4-[2-[4-(isopropoxycarbonylamino)cyclohexyl]thiazol-5-yl]phenyl]carbamate]", "values": [
      {"measurement": "EC50", "setting": "[1]", "value": "> 10", "unit": "µM"},
      {"measurement": "% TGI", "setting": "[2]", "value": 28.75, "unit": "%"},
      {"measurement": "% TGI", "setting": "[3]", "value": "−22.45", "unit": "%"},
      {"measurement": "% TGI", "setting": "[4]", "value": 13.14, "unit": "%"},
      {"measurement": "% TGI", "setting": "[5]", "value": 36.69, "unit": "%"},
      {"measurement": "% TGI", "setting": "[6]", "value": 7.24, "unit": "%"},
      {"measurement": "% TGI", "setting": "[7]", "value": 51.82, "unit": "%"},
      {"measurement": "% TGI", "setting": "[8]", "value": 26.73, "unit": "%"}
    ]}
  ]
}
